This is an account of results in the METLIN SMRT retention time set (Domingo-Almenara et al. 2019).

The nature of this data set: gradient 5% acetonitrile 3 min, to 50% in 2 min, to 85% in 15 min, held 3 min, 100 µL/min. The conditions noted are these: column: Zorbax Extend-C18 2.1 x 50 mm; eluents: water / acetonitrile, 0.1% formic acid. A digest of the protocol:
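Retention times come from adduct peaks that were picked computationally and then checked by hand. The standards, pure and pooled in mixtures of ~100 molecules, were run on a Zorbax Extend-C18 column (2.1 × 50 mm, 1.8 μm) at 100 μL/min with water and acetonitrile, each with 0.1% formic acid. Detection was by quadrupole time-of-flight mass spectrometry in positive and negative ionization mode, with a dead volume of 40 μL and a dwell volume of 900 μL.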
As to `COCCN1C(=O)Cc2ccccc2C1C(=O)N1CCN(c2ccccc2Cl)CC1` (centres undefined), the RP-LC retention time is 904 s.

In turn, `CN(C)S(=O)(=O)c1ccc(C(=O)Nc2nnc(-c3cc4ccccc4o3)o2)cc1` came in with an RP-LC retention time of 789 s.

Compound `CN1CCN(c2ncncc2N2CCC(C(=O)NCc3ccc(F)cc3Cl)CC2)CC1` showed an RP-LC retention time of 572 s.

`Cc1cc(C2CCCN2C(=O)Nc2ccccc2Br)on1` (centres undefined) showed an RP-LC retention time of 867 s.

For the compound `COc1ccc(-c2noc(C3CCCN3C(=O)c3ccoc3)n2)cc1` (centres undefined), the RP-LC retention time is 835 s.

`CC(C)CN1CCn2cc(C(=O)NC3CCCCC3)nc2C1` registered an RP-LC retention time of 600 s.

For `CCN(CC)C(=O)c1cc(NS(=O)(=O)c2ccc(C(C)(C)C)cc2)cnc1N1CCNCC1`, the RP-LC retention time was found to be 680 s.

Consider `C=CCOc1c(CCC)cc(CCC)cc1C(N)=O`, for which the RP-LC retention time turned out to be 1130 s.

In the case of `CCOc1ccc(C2Cn3nnc(-c4nc(-c5ccc(C(F)(F)F)cc5)no4)c3CO2)cc1` (centres undefined), the RP-LC retention time turned out to be 1340 s.

For the compound `CC(C)CNC(=O)Cn1c(C(C)C)nc2ccccc21`, the RP-LC retention time came out at 601 s.

On to `COc1cccc(C2=Nc3cccnc3N(CC(=O)NCc3ccco3)C(=O)C2)c1`, for which the RP-LC retention time is 809 s.

In the case of `Cc1ccc(-c2ncccc2CNS(=O)(=O)c2cccc(Cl)c2)cc1`, the RP-LC retention time was determined as 766 s.

`O=C(CSc1nnc(-c2ccc3c(c2)OCO3)o1)N1CCc2ccccc2C1` had an RP-LC retention time of 990 s.

Turning to `O=C(Cn1cccc1-c1nc(-c2ccccc2)cs1)NCCCN1CCCC1`, the RP-LC retention time came out at 601 s.

With `CN(C)c1ccc(CNC(=O)Cn2cnc3nc4c(cc3c2=O)CCCC4)cc1`, the RP-LC retention time amounted to 586 s.

Compound `Cc1ccc(S(=O)(=O)N2CCOCC2)cc1-c1nnc(-c2ccccc2)o1` gave an RP-LC retention time of 919 s.

Regarding `CCN1C(=O)c2cc(C(=O)Nc3ccc(F)cc3)nn2CC1(C)C(=O)NC1CCCC1` (centres undefined), the RP-LC retention time stood at 813 s.

On to `O=C(c1ccsc1)N1CCC(Nc2ncnc3c2CCC3)CC1`, for which the RP-LC retention time came to 581 s.

`COc1cccc(CNC(=O)C2CCN(C(=O)c3n[nH]c4ccccc34)CC2)c1` yielded an RP-LC retention time of 641 s.

Compound `CCOC(=O)c1c(C)[nH]c(C(=O)N2CCC(CC(=O)NCc3ccccc3C)CC2)c1C` displayed an RP-LC retention time of 802 s.

The compound `CCN(CC)S(=O)(=O)c1ccc2c(c1)cc(C(=O)NCCCN1CCCC(C)C1)n2C` (centres undefined) returned an RP-LC retention time of 691 s.

For the compound `CC(C)NC(=O)c1ccc(OCC2CCCN(C(=O)C3CCCO3)C2)cc1` (centres undefined), the RP-LC retention time was found to be 688 s.

For the compound `Cc1cc(CNC(=O)C2(c3ccc(F)cc3)CC2)c(C)o1`, the RP-LC retention time was determined as 900 s.

As for `CCc1nc2cc(N3CCC(C(=O)NCc4ccc(F)cc4F)CC3)cnc2nc1CC`, the RP-LC retention time was 852 s.

As for `CCCC(=O)Nc1nc(-c2ccc3c(c2)N(C)C(=O)C(C)O3)cs1` (centres undefined), the RP-LC retention time came to 831 s.

With `O=C(O)c1cn(-c2ccc(F)c(F)c2)nn1`, the RP-LC retention time was found to be 664 s.

For `CCCC[C@H]1C(=O)O[C@H](C)[C@H](NC(=O)c2cccc(NC=O)c2OC)C(=O)O[C@@H](C)[C@@H]1OC(=O)CC(C)C`, the RP-LC retention time turned out to be 1190 s.

In turn, `CCCn1c(C(=O)NN2CCCC2=O)cc2c(=O)n(C)c(=O)n(C)c21` registered an RP-LC retention time of 592 s.

Compound `Cc1ccc(CSc2nnc3c(S(=O)(=O)N4CCN(c5ccc(F)cc5)CC4)cccn23)cc1` came in with an RP-LC retention time of 998 s.

Compound `CCOC(=O)C1=CN(CC(=O)NCc2ccc(Cl)cc2)S(=O)(=O)N=C1C` showed an RP-LC retention time of 906 s.

`CCOc1ccc(OCC)c(NC(=O)Cc2csc3nc(-c4ccc(OC)c(OC)c4)cn23)c1`: the RP-LC retention time is 870 s.

Consider `CC(C)(C)OC(=O)Cn1cnc2c(-c3ccc(Cl)cc3)csc2c1=O`, for which the RP-LC retention time was 1120 s.

As for `CNc1nnc(-c2nnc(C)o2)c2ccccc12`, the RP-LC retention time was determined as 567 s.

`CCOC(=O)CNC(=O)N1CCN(Cc2nc3cccnc3n2-c2cccc(F)c2)CC1` gave an RP-LC retention time of 612 s.

In turn, `Cc1cc(C)n(-c2ccnc(N3CCC(C(=O)NCCC(C)C)CC3)n2)n1` showed an RP-LC retention time of 836 s.

In turn, `O=C(Cc1ccc(F)cc1)Nc1ccccc1NC(=O)c1cccc(Cl)c1` had an RP-LC retention time of 897 s.

`CN(CCc1noc(C2CN(Cc3c(F)cccc3Cl)C2)n1)S(C)(=O)=O` had an RP-LC retention time of 594 s.

The compound `COc1ccc(CN(C)Cc2cc(=O)n3ccccc3n2)cc1OC` came in with an RP-LC retention time of 573 s.

Regarding `Cc1nc(N)sc1-c1ccnc(Nc2ccc(N3CCOCC3)cc2)n1`, the RP-LC retention time came out at 624 s.

Turning to `CC(C)c1ccc(CNC(=O)[C@@]23CCCC[C@H]2N(C)C(=O)CC3)cc1`, the RP-LC retention time worked out at 786 s.

For the compound `CC(C)CN1CCN(C(=O)c2nnc(-c3ccc(S(=O)(=O)N(C)C)cc3)o2)CC1`, the RP-LC retention time was 608 s.

`Cn1nc(C2CCCN(C(=O)Nc3ccc4c(c3)OCCO4)C2)n(C2CCCC2)c1=O` (centres undefined) came in with an RP-LC retention time of 718 s.

Take `CCNc1nc(NCC)nc(-n2cnc(SC)n2)n1`: the RP-LC retention time turned out to be 718 s.

Turning to `O=C(Nc1cc(F)ccc1F)N1CCC(CCNC(=O)C2(c3ccccc3)CC2)CC1`, the RP-LC retention time is 948 s.

Consider `CCOc1ccc(-c2cc3c(=O)n(Cc4nc(-c5ccccc5C)no4)ncn3n2)cc1`, for which the RP-LC retention time came out at 1130 s.

In the case of `Cc1cc(-n2c(C)nc3ccccc3c2=O)ccc1NC(=O)CCC1CCCC1`, the RP-LC retention time came to 892 s.

`Cc1csc(-c2cc(S(=O)(=O)NC3CCCC3)cn2CC(=O)N2CCCCC2)n1` gave an RP-LC retention time of 934 s.

In turn, `Cc1cc(-c2nnc(-c3ccc(F)cc3)o2)c(C)n1CC(=O)NCc1cccc(F)c1` had an RP-LC retention time of 940 s.

Take `Cc1cc(-c2c(C)sc(C)c2S(=O)(=O)Nc2cccc(Cl)c2)n[nH]1`: the RP-LC retention time amounted to 1110 s.

In turn, `CCC(=O)N1CCc2c(sc3ncnc(NCCc4ccccc4)c23)C1` displayed an RP-LC retention time of 834 s.

As to `Cc1cccc(-c2noc(C3CCCN3C(=O)Nc3ccccc3F)n2)c1` (centres undefined), the RP-LC retention time was 1020 s.

Take `COc1ccc(-c2noc(C3CC(=O)N(c4ccc(C)c(Cl)c4)C3)n2)cc1OC` (centres undefined): the RP-LC retention time was 1020 s.

`O=C(NCCn1ncccc1=O)C1CCN(c2ccc(-c3ccc(F)cc3)nn2)CC1` gave an RP-LC retention time of 560 s.

In turn, `O=C(Nc1ccccn1)C1CCN(S(=O)(=O)c2ccc(-c3noc(C4CC4)n3)cc2)CC1` showed an RP-LC retention time of 843 s.

Regarding `CC(C)CN(CC(C)C)C(=O)C1CCN(S(=O)(=O)c2cccc3nsnc23)CC1`, the RP-LC retention time was 1040 s.

On to `CCn1c(=O)c(C(=O)NCCN(C)C2CCCCC2)nc2cccnc21`, for which the RP-LC retention time is 722 s.

As for `O=C(NCc1ccco1)C1CCN(c2ccc(=O)n(-c3cccc(Cl)c3)n2)CC1`, the RP-LC retention time was determined as 785 s.

In the case of `Cc1ccsc1C(=O)Nc1cnc(-c2cccc(Cl)c2)nc1`, the RP-LC retention time was found to be 1130 s.

Compound `CCCCC(=O)NC1(C(F)(F)F)C(=O)N(Cc2ccccc2)C(C)=C1C(=O)OC` (centres undefined) gave an RP-LC retention time of 989 s.

`CCC(C)NC(=O)N1C[C@@H]2CN(S(=O)(=O)c3ccc(F)cc3)C[C@H](C1)O2` (some centres undefined) came in with an RP-LC retention time of 731 s.

As to `COCCN1CCC(CNS(=O)(=O)c2ccc(F)cc2C)CC1`, the RP-LC retention time is 566 s.

In turn, `O=C(NCc1cscn1)C1CCN(S(=O)(=O)c2ccc(Cl)s2)CC1` showed an RP-LC retention time of 739 s.

`CCN(CC)CCNS(=O)(=O)c1cc(-c2[nH]ncc2C(=O)N2CCCC2)oc1C` gave an RP-LC retention time of 565 s.

As to `CCC(=O)N1N=C(c2cccs2)CC1c1cccs1` (centres undefined), the RP-LC retention time was 880 s.

Regarding `Cn1nc(C(=O)N2CCCN(c3cc(-c4ccccc4)[nH]n3)CC2)c2ccccc21`, the RP-LC retention time is 700 s.

`O=C(NC1CC1)C1CCCN(S(=O)(=O)c2c[nH]c(C(=O)N3CCCCCC3)c2)C1` (centres undefined): the RP-LC retention time was found to be 702 s.

Regarding `CC(C)Oc1ccc(NC(=O)C2CCN(S(C)(=O)=O)c3ccccc3O2)cc1` (centres undefined), the RP-LC retention time was 935 s.

Take `O=C(Nc1ccc2c(c1)CN(C(=O)Cn1c(=O)oc3ccccc31)CCO2)C1CC1`: the RP-LC retention time amounted to 767 s.

In turn, `O=C(NCc1ccccc1Cl)C1CCCN(c2nccnc2Sc2ccccc2)C1` (centres undefined) displayed an RP-LC retention time of 1070 s.

`COc1cccc(-c2noc(C3CCCN3C(=O)Nc3ccc(OC)cc3OC)n2)c1` (centres undefined): the RP-LC retention time amounted to 941 s.

The compound `COc1cccc(CCC(=O)Nc2ccc3ncnc(N4CCCC4)c3c2)c1` yielded an RP-LC retention time of 683 s.

For the compound `COc1ccccc1CNC(=O)Cn1cc(C(=O)N2CCCC2)c(=O)c2ccc(C)nc21`, the RP-LC retention time turned out to be 681 s.

`CCOC(=O)c1[nH]c(C)c(C(=O)N2CCC(CC(=O)NC3CC3)CC2)c1C` returned an RP-LC retention time of 628 s.

The compound `CCn1cnc(S(=O)(=O)N2CCCC(C(=O)Nc3ccccc3)C2)c1` (centres undefined) gave an RP-LC retention time of 726 s.

Consider `CSc1ccccc1CN1CCC(CNS(=O)(=O)/C=C/c2ccccc2)CC1`, for which the RP-LC retention time is 607 s.

In turn, `COc1ccccc1-c1nc2nccc(-c3ccncc3)n2n1` returned an RP-LC retention time of 654 s.

As to `Cc1ccc(NC(=O)C2CCCN(c3ncnc4c3nc3n4CCCCC3)C2)c(C)c1` (centres undefined), the RP-LC retention time came out at 824 s.

For the compound `Cc1ccccc1Nc1c(-c2ccc(Br)cc2)nc2cnccn12`, the RP-LC retention time came out at 1060 s.

As for `O=C(Cn1cccc1-c1nc(-c2ccc3c(c2)OCO3)no1)Nc1cc(F)ccc1Cl`, the RP-LC retention time was 1110 s.
